Measured values from paper PMC3671111, “A Phase I, open-label, randomized, crossover study in three parallel groups to evaluate the effect of Rifampicin, Ketoconazole, and Omeprazole on the pharmacokinetics of THC/CBD oromucosal spray in healthy volunteers” (SpringerPlus, 2013).
Marks after values point to notes of the source that are not given here.

Key:
[1] = Phase I drug-drug interaction PK, Group 1: THC/CBD spray alone or with rifampicin, plasma by GC-MS; conditions: for AUC(0-inf) / AUC(0-t) / Cmax / Kel / t½ / Tmax: n = 12, plasma; for AUC(0-inf) / AUC(0-t) / Cmax / Kel / t½: mean (SD); for Tmax: median (range)
Description: (§1) Subjects received rifampicin on Days 1-9. […] Subjects received ketoconazole on Days 1-4.
(§2) Blood samples were collected at specified times and stored on ice (except rifampicin PK samples which were stored in iced water) prior to processing and storage. Plasma samples were separated by centrifugation (approximately 2500 rpm × 15 minutes at 4°C). Samples were stored in 4 mL amber glass screw top glass vials with PTFE lined screw caps labelled with Guys Drug Research (Quintiles Limited) labels. The aliquots were stored in clearly labelled containers in a freezer set at or below -20°C, until shipped for assay. Samples were shipped on dry ice at the appropriate time-points.
(§3) The assay validation was undertaken by Advanced Bioanalytical Service Laboratories (London, UK), who developed the technique after reviewing the literature, which was based on the methodology adopted by three different groups (Foltz et al. [1983]; Goodall & Basteyns [1995]; Kemp et al. [1995]), and designed with reference to FDA guidelines for industry (FDA Guidance for Industry [2012]). The method utilised protein precipitation, solvent extraction and derivatisation for the sample preparation and then sample analysis by capillary gas chromatography and detection by a mass spectrometer (GC-MS). The validation procedure investigated the calibration model with the best regression fit over the concentration range 0.1 - 100 ng/mL for CBD, THC and 11-OH-THC, as well as precision and accuracy of the method, stability, carry-over, and specificity.
(§4) Human plasma from healthy volunteers was used to prepare the standards and quality control (QC) samples, with analytes extracted using hexane/ethyl acetate (7:1 ratio), derivatised with N,O-Bis(trimethylsilyl)trifluoroacetamide. Analytic grade THC (Sigma, UK), CBD (Sigma, UK) and 11-OH-THC (Radian International and Cerillant, UK) were obtained, and three sets of CBD, THC and 11-OH-THC were used to support the study. Deuterated THC-d3 (Sigma, UK) was used as the internal standard. The GC-MS equipment was a Hewlett Packard 6890 Gas Chromatograph attached to a Hewlett Packard 5973 Mass Selective Detector. Data handling was carried out using an MS Chemstation System and the peak area ratio of the analytes to the internal standard was calculated in Excel (2000). The concentrations were calculated from the ratio data using least squares ln(y) on ln(x) regression performed in Excel (2000), and were then checked manually. Regression analysis was undertaken to find the regression model that best described the calibration data (for details, see ([Miller & Miller 1992])).
(§5) A 0.5 mL aliquot of test sample, QC or blank plasma was placed into a test tube. The blank plasma was spiked with 50 μL of the appropriate standard solution to produce the calibration standards. 50 μL of the internal standard was added to each test tube. The samples were then diluted by the addition of 500 μL of 0.1% (w/v) ascorbic acid and the protein precipitated by the addition of 1.0 mL of acetonitrile. The proteins were removed by centrifugation and the supernatant concentrated to 1 mL using nitrogen at 50 °C. The samples were then basified by the addition of 300 μL of 5M sodium hydroxide and the analytes extracted by the addition of 2.0 mL of 7:1 hexane:ethyl acetate. After mixing for 16 minutes the tubes were centrifuged and the top layer transferred into clean 3 dram vials. The solvent was removed using nitrogen at 70 °C and the dried extract resuspended in 100 μL of BSTFA and transferred to microvials, capped and placed at 70 °C for 30 minutes to derivatise the analytes. The microvials were then cooled and loaded onto the autosampler tray for analysis where 1 μL was injected onto the GC-MS system.

[2] = Phase I drug-drug interaction PK, Group 2: THC/CBD spray alone or with ketoconazole, plasma by GC-MS; conditions: for AUC(0-inf) / AUC(0-t) / Cmax / Kel / t½ / Tmax: plasma; for AUC(0-inf) / AUC(0-t) / Cmax / Kel / t½: mean (SD); for Tmax: median (range)
Description: as §1, §2, §3, §4, §5

[3] = Phase I drug-drug interaction PK, Group 3: THC/CBD spray alone or with omeprazole, plasma by GC-MS; conditions: for AUC(0-inf) / AUC(0-t) / Cmax / Kel / t½ / Tmax: n = 12, plasma; for AUC(0-inf) / AUC(0-t) / Cmax / Kel / t½: mean (SD); for Tmax: median (range); for Cmax and AUC % Co-efficient of Variation (CV%) range: inter-subject variability
Description: as §1, §2, §3, §4, §5

[4] = Rifampicin and THC/CBD spray vs THC/CBD spray alone, no-interaction range 0.80 to 1.25
[5] = THC/CBD spray 4 sprays and rifampicin 600 mg after repeated daily dosing
[6] = THC/CBD spray alone, single dose 4 sprays (10.8/10 mg), rifampicin group
[7] = THC/CBD spray co-administered with rifampicin vs alone
[8] = Ketoconazole and THC/CBD spray vs THC/CBD spray alone, no-interaction range 0.80 to 1.25
[9] = THC/CBD spray 4 sprays and ketoconazole 400 mg at end of 5-day dosing period, n = 11
[10] = THC/CBD spray alone, single dose 4 sprays (10.8/10 mg), ketoconazole group, n = 12
[11] = THC/CBD spray co-administered with ketoconazole vs alone
[12] = Omeprazole and THC/CBD spray vs THC/CBD spray alone, no-interaction range 0.80 to 1.25
[13] = THC/CBD spray 4 sprays and omeprazole 40 mg at end of 6-day dosing period
[14] = THC/CBD spray alone, single dose 4 sprays (10.8/10 mg), omeprazole group
[15] = THC/CBD spray co-administered with omeprazole vs alone

11-hydroxy-THC [11-OH-THC]
Geometric mean ratio of AUC(0-inf), point estimate [1, 4]: 0.131 | Geometric mean ratio of AUC(0-t), point estimate [1, 4]: 0.099 | Geometric mean ratio of Cmax, point estimate [1, 4]: 0.140 | AUC(0-inf) [1, 5]: 2.78 (0.68)^c h*ng/mL | AUC(0-t) [1, 5]: 1.84 (0.79) h*ng/mL | Cmax [1, 5]: 0.45 (0.18) ng/mL | Kel [1, 5]: 0.189 (0.074)^c h^-1 | t½ [1, 5]: 4.19 (1.62)^c h | Tmax [1, 5]: 1.75 (1.50-2.57) h | AUC(0-inf) [1, 6]: 21.59 (8.76) h*ng/mL | AUC(0-t) [1, 6]: 18.61 (7.81) h*ng/mL | Cmax [1, 6]: 3.38 (1.95) ng/mL | Kel [1, 6]: 0.083 (0.042) h^-1 | t½ [1, 6]: 9.88 (3.89) h | Tmax [1, 6]: 1.38 (0.50-6.02) h | % change in mean t1/2 [1, 7]: -58% | % change in median Tmax [1, 7]: +27% | Change in mean Cmax ([1]; THC/CBD spray with rifampicin vs THC/CBD spray alone): -87% | Geometric mean ratio of AUC(0-inf), point estimate [2, 8]: 3.616 | Geometric mean ratio of AUC(0-t), point estimate [2, 8]: 3.823 | Geometric mean ratio of Cmax, point estimate [2, 8]: 3.074 | AUC(0-inf) [2, 9]: 95.26 (48.93) h*ng/mL | AUC(0-t) [2, 9]: 84.34 (40.18) h*ng/mL | Cmax [2, 9]: 10.92 (3.83) ng/mL | Kel [2, 9]: 0.095 (0.016) h^-1 | t½ [2, 9]: 7.48 (1.39) h | Tmax [2, 9]: 2.25 (1.50-4.13) h | AUC(0-inf) [2, 10]: 27.13 (13.34)^d h*ng/mL | AUC(0-t) [2, 10]: 21.78 (11.34) h*ng/mL | Cmax [2, 10]: 3.59 (1.67) ng/mL | Kel [2, 10]: 0.076 (0.014)^d h^-1 | t½ [2, 10]: 9.51 (2.18)^d h | Tmax [2, 10]: 1.50 (1.00-6.00) h | % change in mean Tmax [2, 11]: +50% | % change in t1/2 [2, 11]: -21% | Change in mean Cmax ([2]; THC/CBD spray with ketoconazole vs THC/CBD spray alone): +204% | Substrate for the isoenzyme CYP3A4 (conclusion from ketoconazole interaction) ([2]; suggested by increased exposure with ketoconazole): substrates | AUC, times higher after CYP3A4 inhibition by ketoconazole ([2]; vs THC/CBD spray alone): 3.8 times | Cmax, times higher after CYP3A4 inhibition by ketoconazole ([2]; vs THC/CBD spray alone): 3.1 times | Geometric mean ratio of AUC(0-inf), point estimate [3, 12]: 0.869 | Geometric mean ratio of AUC(0-t), point estimate [3, 12]: 0.869 | Geometric mean ratio of Cmax, point estimate [3, 12]: 0.866 | AUC(0-inf) [3, 13]: 19.80 (9.74) h*ng/mL | AUC(0-t) [3, 13]: 17.69 (9.05) h*ng/mL | Cmax [3, 13]: 2.84 (1.40) ng/mL | Kel [3, 13]: 0.095 (0.029) h^-1 | t½ [3, 13]: 7.98 (2.82) h | Tmax [3, 13]: 1.52 (1.23-2.50) h | AUC(0-inf) [3, 14]: 24.17 (16.47) h*ng/mL | AUC(0-t) [3, 14]: 21.52 (14.76) h*ng/mL | Cmax [3, 14]: 3.48 (2.27) ng/mL | Kel [3, 14]: 0.114 (0.062) h^-1 | t½ [3, 14]: 7.30 (2.87) h | Tmax [3, 14]: 2.00 (1.25-3.02) h | Plasma concentrations and PK parameters compared with THC/CBD spray alone ([3]; THC/CBD spray at end of 6-day omeprazole dosing): marginally lower | % change in Tmax [3, 15]: -24% | % change in t1/2 [3, 15]: +9% | Substrate for the isoenzyme CYP2C19 (conclusion from omeprazole interaction) ([3]; at the clinically relevant dose of THC/CBD spray investigated): not substrates | Cmax and AUC % Co-efficient of Variation (CV%) range ([3]; THC/CBD spray alone, omeprazole group): 48-69% | Cmax and AUC % Co-efficient of Variation (CV%) range ([3]; THC/CBD spray in combination with omeprazole): 40-67%
